Results taken from patent US6682892B2, “Method for treating herpes viruses” (priority 2000, dated 2004).
Read-outs that look alike come from different tables or passages of the source.

Assays:
Type in all cases: cell-based
HSV-1 KOS = assay: Plaque reduction assay, HSV-1 KOS
Description: (§1) Antiviral activity of compounds against herpesviruses such as HSV-1, HSV-2, or HCMV can be measured using plaque reduction assays. 0.1 ml of media containing approximately 50 PFU of virus is added to each well of a 24-well cell culture dish containing a confluent monolayer of cells (Vero cells for HSV-1 and HSV-2, HFF cells for HCMV). Compounds are dissolved in 100% DMSO and diluted in 100% DMSO as 200× stocks of the desired final drug concentration. Typically 5-6 two-fold dilutions are prepared for each compound. Dilutions of compounds are then added to media containing 0.8% CMC resulting in a final 1× drug concentration. After the virus-infected cells have incubated for 1 h at 37° C., the virus innoculum is removed and 1 ml of media containing 0.8% CMC and the various concentrations of compound is added to each well of the dish. The dish is incubated at 37° C. for approximately 2-3 days (HSV-1 and HSV-2) or 6-9 days (HCMV) to allow sufficient growth of virus to form plaques in the cell monolayer. Plaques can be observed and counted microscopically or by staining the cells with 0.1% crystal violet in 20% ethanol. […] Antiviral activity of a compound is expressed as the concentration of compound predicted to reduce the number of plaques in a well by 50% (IC50). The IC50 values are calculated by plotting the per cent inhibition vs. concentration of compound using EXCEL software for linear regression.
(§2) A panel of viruses consisting of four strains of HSV-1 (KOS, F, DJL, Patton) and three strains of HSV-2 (MS, 35D, 186) are tested in a plaque reduction assay against four different 4-oxo-DHQ compounds (#1, 2, 4, 5 as shown in FIG. 1), and one 4-oxo-DHTP compound (#3 as shown in FIG. 1) and against Acyclovir. The six drugs inhibited replication of the seven virus strains with IC50 values ranging from 2-10 μM (Table 1). In order to select for 4-oxo-DHQ resistant mutants, HSV-1 strains KOS, F, and DJL along with HSV-2 strains 186 and MS are serially passaged in the presence of 20 uM compound 1. Following the seventh passage, 4-oxo-DHQ resistant virus from each strain are plaque purified three times and high-titer stocks are made.

HSV-2 MS-M1 (V826A) = assay: Plaque reduction assay, 4-oxo-DHQ resistant HSV-2 MS-M1; settings: Table 5, mutant selected for 4-oxo-DHQ resistance; read-out: Plaque Reduction Assay - IC50 (μM) HSV-2 MS-M1
Description: as §1
(§3) Vero cells are plated out at a density of 3.5×10^5 cells per well in a six well tissue culture plate. Cells are infected with HSV-1 KOS at a multiplicity of infection (moi) of 0.1 pfu/cell and 1 h post infection the cells are overlayed with 3 ml media containing 20 uM of a 4-oxo-DHQ. Cultures are incubated for 20 h at 37° C., freeze/thawed to release cell-associated virus, and 0.1 ml of culture is used to infect a new monolayer of Vero cells (one passage). Serial passage is repeated seven times in the presence of 20 uM drug. Virus isolates are then plaque purified three times prior to preparation of stocks. 4-oxo-DHQ resistant HSV-1 and HSV-2 may also be selected by the marker transfer method described below using wild-type HSV DNA and the corresponding mutant HSV polymerase gene.
as §2

HSV-2 MS = assay: Plaque reduction assay, HSV-2 MS
Description: as §1, §2

[1] = tested on: HCMV AD169-M1 (V823A, V824L); assay: Plaque reduction assay, 4-oxo-DHQ resistant HCMV AD169-M1
Description: as §1
A plasmid containing the wild-type HCMV polymerase gene is modified to contain the V823A or V823A and V824L mutations using a site-directed mutagenesis Kit (Stratagene Corp.) and following the manufactures's protocol. HFF cells are plated into T25 tissue culture flasks to achieve 80% confluency at the time of the transfection. Wild type HCMV AD 169 DNA and plasmid DNA containing the mutant HCMV polymerase gene are mixed at a ratio of 1:2 (2 ug of viral DNA to 4 ug of plasmid DNA). DNA's are transfected using superfect transfection reagent according to methods recommended by the manufacturer (Quiagen Inc.). Cells are harvested five days posttransfection, freeze-thawed to release virus and half of the sample is used to infect HFF cell monolayers. Cells are overlayed with media containing 20 uM 4-oxo-DHQ compound 2 (see FIG. 1). Serial passage is repeated seven times in the presence of 20 uM compound 2 and virus isolates are then plaque purified three times prior to preparation of viral stock.
In order to isolate an HCMV resistant mutant marker rescue experiments are done. Plasmids containing the mutant polymerase genes are transfected into HFF cells along with wild type HCMV AD169 DNA. The resulting virus is then serially passaged in the presence of 20 uM compound 1 (see FIG. 1). A 4-oxo-DHQ resistant virus is isolated from marker rescue studies done with the HCMV polymerase gene containing mutations that result in the V823A, V824L amino acid changes, but not with the gene containing V823A change alone.

HSV-1 KOS-M1 (V823A) = assay: Plaque reduction assay, 4-oxo-DHQ resistant HSV-1 KOS-M1; settings: Table 5, mutant selected for 4-oxo-DHQ resistance; read-out: Plaque Reduction Assay - IC50 (μM) HSV-1 KOS-M1
Description: as §1, §3, §2

HCMV AD169 = assay: Plaque reduction assay, HCMV AD169
Description: as §1

HSV-2 35D = assay: Plaque reduction assay, HSV-2 35D; settings: Table 1, plaque reduction, Vero cells
Description: as §1, §2

HSV-1 Patton = assay: Plaque reduction assay, HSV-1 Patton; settings: Table 1, plaque reduction, Vero cells
Description: as §1, §2

HSV-2 186 = assay: Plaque reduction assay, HSV-2 186; settings: Table 1, plaque reduction, Vero cells
Description: as §1, §2

HSV-1 F = assay: Plaque reduction assay, HSV-1 F; settings: Table 1, plaque reduction, Vero cells
Description: as §1, §2

HSV-1 DJL = assay: Plaque reduction assay, HSV-1 DJL; settings: Table 1, plaque reduction, Vero cells
Description: as §1, §2

[2] = Table 5, wild type strain, read-out: Plaque Reduction Assay - IC50 (μM) HSV-1 KOS
[3] = Table 5, wild type strain, read-out: Plaque Reduction Assay - IC50 (μM) HSV-2 MS
[4] = Table 5, mutant selected for 4-oxo-DHQ resistance, read-out: Plaque Reduction Assay - IC50 (μM) HCMV AD169-M1
[5] = Table 5, wild type strain, read-out: Plaque Reduction Assay - IC50 (μM) HCMV AD169
[6] = Human betaherpesvirus 5, AD169, read-out: HCMV AD169 - M1 IC50 (μM)
[7] = Human betaherpesvirus 5, AD169, Table 4, plaque reduction, wild type, read-out: HCMV AD169 IC50
[8] = Human betaherpesvirus 5, AD169, Table 5, wild type strain, read-out: Plaque Reduction Assay - IC50 (μM) HCMV AD169

Row | Compound | IC50 (HSV-1 KOS; [2]) [µM] | IC50 (HSV-2 MS-M1 (V826A)) [µM] | IC50 (HSV-2 MS; [3]) [µM] | IC50 [1, 4] [µM] | IC50 (HSV-1 KOS-M1 (V823A)) [µM] | IC50 (HCMV AD169; [5]) [µM] | also measured
1 | CN(Cc1cc2c(=O)c(C(=O)NCc3ccc(Cl)cc3)cn(C)c2s1)CC(O)c1ccccc1 (racemic) [Compound 8] | 5.1 | > 50 | 2.3 | 1.1 | > 50 | < 0.1 | –
2 | Nc1ccn([C@@H]2O[C@H](CO)[C@@H](O)[C@@H]2O)c(=O)n1 [AraC, Arabinosylcytidine, reference compound] | 0.2 | 0.1 | 0.2 | – | – | – | –
3 | Cc1cn([C@@H]2O[C@H](CO)[C@@H](O)[C@@H]2O)c(=O)[nH]c1=O [AraT, Arabinosylthymine, reference compound] | 11.6 | 3.6 | 6.6 | – | 3.6 | – | –
4 | Nc1ccn(C[C@@H](CO)OCP(=O)(O)O)c(=O)n1 [Cidofovir, reference compound] | – | – | – | – | – | – | IC50 [1, 6]: 0.6 µM; increase in IC50 / change in sensitivity, HCMV AD169-M1 [1]: < 2 fold; IC50 (HCMV AD169; [7]): 0.3 µM; IC50 (HCMV AD169; [8]): 0.4 µM
5 | O=C(NCc1ccc(Cl)cc1)c1cn(N2CCOCC2)c2ccc(CN3CCOCC3)cc2c1=O [Compound 5] | – | – | – | – | – | – | IC50 (HSV-1 KOS; Table 1, plaque reduction, Vero cells, read-out: IC50 (uM), HSV-1 KOS): 3.3 µM; IC50 (HSV-2 MS; Table 1, plaque reduction, Vero cells, read-out: IC50 (uM), HSV-2 MS): 2.5 µM; IC50 (HSV-2 35D): 8.1 µM; IC50 (HSV-1 Patton): 10 µM; IC50 (HSV-2 186): 4.2 µM; IC50 (HSV-1 F): 2.6 µM; IC50 (HSV-1 DJL): 2.7 µM
6 | O=C(NCc1ccc(Cl)cc1)c1cnc2c(F)cccc2c1O [Compound 6] | 24.6 | > 50 | 28.8 | > 16 | > 50 | 5.1 | –
7 | O=C(NCc1ccc(Cl)cc1)c1cnc2ccc(CCCO)cc2c1O [Compound 7] | 6.5 | 27.9 | 8.8 | 3.4 | > 50 | 0.3 | –
8 | O=C(NCc1ccc(Cl)cc1)c1cn2c(CO)cc3cc(CN4CCOCC4)cc(c1=O)c32 [Compound 9] | 1.9 | 48.7 | 0.9 | 3.1 | > 50 | < 0.1 | –
9 | Cn1cc(C(=O)NCc2ccc(Br)cc2)c(=O)c2cc(CN3CCOCC3)sc21 [Compound 10] | 15.8 | > 50 | 29.2 | > 16 | > 50 | 1.1 | –
10 | O=C(NCc1ccc(Cl)cc1)c1cn(C2COC2)c2ccc(CN3CCOCC3)cc2c1=O [Compound 11] | 3.1 | > 50 | 3 | 3.9 | > 50 | 0.7 | –
11 | Cn1cc(C(=O)NCc2ccc(Cl)cc2)c(=O)c2cc(CN3CCOCC3)cc(C#CCO)c21 [Compound 12] | 1.3 | 12.5 | 0.4 | 1.1 | > 50 | 0.2 | –
12 | Cn1cc(C(=S)NCc2ccc(Cl)cc2)c(=O)c2cc(C#CCO)ccc21 [Compound 13] | 5.5 | > 50 | 5.3 | > 16 | < 25 | 2.7 | –
13 | Cn1nc(C(=O)NCc2ccc(Cl)cc2)c(=O)c2cc(C#CCO)ccc21 [Compound 14] | 28.4 | > 50 | 1.6 | 18.4 | > 50 | 0.9 | –
14 | Cc1nc2c(cc1C#CCO)c(=O)c(C(=O)NCc1ccc(Cl)cc1)cn2C [Compound 15] | > 50 | > 50 | 5.9 | 7.7 | > 50 | 0.7 | –
15 | Nc1nc(O)c2ncn(COC(CO)CO)c2n1 [Ganciclovir, reference compound] | – | – | – | – | – | – | IC50 [1, 6]: 1 µM; increase in IC50 / change in sensitivity, HCMV AD169-M1 [1]: < 2 fold; IC50 (HCMV AD169; [7]): 0.9 µM; IC50 (HCMV AD169; [8]): 0.8 µM
16 | O=c1[nH]c(=O)n([C@H]2C[C@H](O)[C@@H](CO)O2)cc1I [Iudr, Iododeoxyuridine, reference compound] | 1.1 | 6.1 | 5 | – | 0.8 | – | –
17 | O=C(O)P(=O)(O)O [PFA, Foscarnet, reference compound] | – | – | – | – | – | – | IC50 ([1]; Human betaherpesvirus 5, AD169, read-out: Plaque Reduction Assay - IC50 (μM) HCMV AD169-M1): < 20 µM; IC50 (HCMV AD169; [8]): 38 µM
